Experimental data from ChEMBL document CHEMBL3045941, “-Methyl as a bioisostere for the oxygen link between the aromatic rings of aryloxyphenoxypropionate herbicides” (Bioorg Med Chem Lett, 1997).
Activity calls are given as the source filed them. The rule behind the calls is not given here.

Key:
Avena fatua [1] = assay: Post-emergent herbicidal activity against Avena fatua at 50 g/ha measured after 13 days under green house conditions; format: functional
Setaria viridis [2] = assay: Post-emergent herbicidal activity against Setaria viridis (green foxtail) at 12.5 g/ha measured after 13 days under green house conditions; format: functional
Avena fatua [3] = assay: Post-emergent herbicidal activity against Avena fatua at <2 g/ha measured after 13 days under green house conditions; format: functional, organism-based
Oryza sativa [4] = assay: Phytotoxicity against Oryza sativa (rice) plant at two to four-leaf growth stage at 50 g/ha measured after 13 days under green house conditions; format: organism-based; settings: in vivo, 312 h
Setaria viridis [5] = assay: Post-emergent herbicidal activity against Setaria viridis (green foxtail) at <2 g/ha measured after 13 days under green house conditions; format: functional, organism-based
Triticum aestivum [6] = assay: Phytotoxicity against Triticum aestivum (wheat) at two to four-leaf growth stage at 12.5 g/ha measured after 13 days under green house conditions; format: organism-based; settings: in vivo, 312 h
Zea mays [7] = assay: Phytotoxicity against Zea mays (maize) plant at two to four-leaf growth stage at 12.5 g/ha measured after 13 days under green house conditions; format: organism-based; settings: in vivo, 312 h
Zea mays [8] = assay: Phytotoxicity against Zea mays (maize) plant at two to four-leaf growth stage at <2 g/ha measured after 13 days under green house conditions; format: organism-based; settings: in vivo, 312 h
Oryza sativa [9] = assay: Phytotoxicity against Oryza sativa (rice) plant at two to four-leaf growth stage at 12.5 g/ha measured after 13 days under green house conditions; format: organism-based; settings: in vivo, 312 h
Sorghum halepense [10] = assay: Post-emergent herbicidal activity against Sorghum halepense (Johnson grass) at 50 g/ha measured after 13 days under green house conditions; format: functional
Sorghum halepense [11] = assay: Post-emergent herbicidal activity against Sorghum halepense (Johnson grass) at <2 g/ha measured after 13 days under green house conditions; format: functional, organism-based
Oryza sativa [12] = assay: Phytotoxicity against Oryza sativa (rice) plant at two to four-leaf growth stage at <2 g/ha measured after 13 days under green house conditions; format: organism-based; settings: in vivo, 312 h
Sorghum halepense [13] = assay: Post-emergent herbicidal activity against Sorghum halepense (Johnson grass) at 12.5 g/ha measured after 13 days under green house conditions; format: functional
Echinochloa crus-galli [14] = assay: Post-emergent herbicidal activity against Echinochloa crus-galli (barnyard grass) at 50 g/ha measured after 13 days under green house conditions; format: functional
Echinochloa crus-galli [15] = assay: Post-emergent herbicidal activity against Echinochloa crus-galli (barnyard grass) at <2 g/ha measured after 13 days under green house conditions; format: functional, organism-based
[16] = molecular target: Acetyl-CoA carboxylase (Hordeum vulgare) (UniProt Q3V4F7+Q3V4I7+Q947J4+Q947J5+Q40010+Q5S741+Q5S747); assay: Inhibition of acetyl-CoA carboxylase in Hordeum vulgare (barley) leaves; format: protein assay
Echinochloa crus-galli [17] = assay: Post-emergent herbicidal activity against Echinochloa crus-galli (barnyard grass) at 12.5 g/ha measured after 13 days under green house conditions; format: functional
Setaria viridis [18] = assay: Post-emergent herbicidal activity against Setaria viridis (green foxtail) at 50 g/ha measured after 13 days under green house conditions; format: functional
Triticum aestivum [19] = assay: Phytotoxicity against Triticum aestivum (wheat) at two to four-leaf growth stage at <2 g/ha measured after 13 days under green house conditions; format: organism-based; settings: in vivo, 312 h
Zea mays [20] = assay: Phytotoxicity against Zea mays (maize) plant at two to four-leaf growth stage at 50 g/ha measured after 13 days under green house conditions; format: organism-based; settings: in vivo, 312 h
Triticum aestivum [21] = assay: Phytotoxicity against Triticum aestivum (wheat) at two to four-leaf growth stage at 50 g/ha measured after 13 days under green house conditions; format: organism-based; settings: in vivo, 312 h
Avena fatua [22] = assay: Post-emergent herbicidal activity against Avena fatua at 12.5 g/ha measured after 13 days under green house conditions; format: functional
Oryza sativa [23] = assay: Phytotoxicity against Oryza sativa (rice) plant at two to four-leaf growth stage at 5 g/ha measured after 13 days under green house conditions; format: organism-based; settings: in vivo, 312 h
Echinochloa crus-galli [24] = assay: Post-emergent herbicidal activity against Echinochloa crus-galli (barnyard grass) at 5 g/ha measured after 13 days under green house conditions; format: functional
Avena fatua [25] = assay: Post-emergent herbicidal activity against Avena fatua at 5 g/ha measured after 13 days under green house conditions; format: functional
Zea mays [26] = assay: Phytotoxicity against Zea mays (maize) plant at two to four-leaf growth stage at 5 g/ha measured after 13 days under green house conditions; format: organism-based; settings: in vivo, 312 h
Setaria viridis [27] = assay: Post-emergent herbicidal activity against Setaria viridis (green foxtail) at 5 g/ha measured after 13 days under green house conditions; format: functional
Triticum aestivum [28] = assay: Phytotoxicity against Triticum aestivum (wheat) at two to four-leaf growth stage at 5 g/ha measured after 13 days under green house conditions; format: organism-based; settings: in vivo, 312 h
Sorghum halepense [29] = assay: Post-emergent herbicidal activity against Sorghum halepense (Johnson grass) at 5 g/ha measured after 13 days under green house conditions; format: functional
Echinochloa crus-galli [30] = assay: Post-emergent herbicidal activity against Echinochloa crus-galli (barnyard grass) at 250 g/ha measured after 13 days under green house conditions; format: functional
Setaria viridis [31] = assay: Post-emergent herbicidal activity against Setaria viridis (green foxtail) at 250 g/ha measured after 13 days under green house conditions; format: functional
Oryza sativa [32] = assay: Phytotoxicity against Oryza sativa (rice) plant at two to four-leaf growth stage at 250 g/ha measured after 13 days under green house conditions; format: organism-based; settings: in vivo, 312 h
Zea mays [33] = assay: Phytotoxicity against Zea mays (maize) plant at two to four-leaf growth stage at 250 g/ha measured after 13 days under green house conditions; format: organism-based; settings: in vivo, 312 h
Sorghum halepense [34] = assay: Post-emergent herbicidal activity against Sorghum halepense (Johnson grass) at 250 g/ha measured after 13 days under green house conditions; format: functional
Triticum aestivum [35] = assay: Phytotoxicity against Triticum aestivum (wheat) at two to four-leaf growth stage at 250 g/ha measured after 13 days under green house conditions; format: organism-based; settings: in vivo, 312 h
Avena fatua [36] = assay: Post-emergent herbicidal activity against Avena fatua at 250 g/ha measured after 13 days under green house conditions; format: functional
Zea mays [37] = assay: Phytotoxicity against Zea mays (maize) plant at two to four-leaf growth stage at 100 g/ha measured after 13 days under green house conditions; format: organism-based; settings: in vivo, 312 h
Setaria viridis [38] = assay: Post-emergent herbicidal activity against Setaria viridis (green foxtail) at 100 g/ha measured after 13 days under green house conditions; format: functional
Triticum aestivum [39] = assay: Phytotoxicity against Triticum aestivum (wheat) at two to four-leaf growth stage at 100 g/ha measured after 13 days under green house conditions; format: organism-based; settings: in vivo, 312 h
Sorghum halepense [40] = assay: Post-emergent herbicidal activity against Sorghum halepense (Johnson grass) at 100 g/ha measured after 13 days under green house conditions; format: functional
Avena fatua [41] = assay: Post-emergent herbicidal activity against Avena fatua at 100 g/ha measured after 13 days under green house conditions; format: functional
Echinochloa crus-galli [42] = assay: Post-emergent herbicidal activity against Echinochloa crus-galli (barnyard grass) at 100 g/ha measured after 13 days under green house conditions; format: functional
Oryza sativa [43] = assay: Phytotoxicity against Oryza sativa (rice) plant at two to four-leaf growth stage at 100 g/ha measured after 13 days under green house conditions; format: organism-based; settings: in vivo, 312 h

Structure (SMILES)	Activity (Avena fatua [1])	Activity (Avena fatua [3])	Activity (Oryza sativa [4])	Activity (Setaria viridis [5])	Activity (Zea mays [8])	Activity (Sorghum halepense [10])	Activity (Sorghum halepense [11])	Activity (Oryza sativa [12])	Activity (Echinochloa crus-galli [14])	Activity (Echinochloa crus-galli [15])	Activity (Setaria viridis [18])	Activity (Triticum aestivum [19])	Activity (Zea mays [20])	Activity (Triticum aestivum [21])	Activity (Oryza sativa [23])	Activity (Echinochloa crus-galli [24])	Activity (Avena fatua [25])	Activity (Zea mays [26])	Activity (Setaria viridis [27])	Activity (Triticum aestivum [28])	further results
CCOC(=O)C(C)Oc1ccc(N(C)c2ncc3cc(Cl)ccc3n2)cc1 (racemic)	15%	inactive	35%	inactive	Non-toxic	98%	inactive	Non-toxic	85%	inactive	98%	Non-toxic	65%	65%	–	–	–	–	–	–	Activity (Setaria viridis [2]): 65%; Activity (Triticum aestivum [6]): 35%; Activity (Zea mays [7]): 15%; Activity (Oryza sativa [9]): 0%; Activity (Sorghum halepense [13]): 65%; Activity [16]: 1.5 µM; Activity (Echinochloa crus-galli [17]): 98%; Activity (Avena fatua [22]): 0%
CCOC(=O)C(C)Oc1ccc(Oc2cnc3cc(Cl)ccc3n2)cc1 (racemic) [QUIZALOFOP ETHYL ESTER]	85%	inactive	70%	inactive	Non-toxic	100%	inactive	Non-toxic	100%	inactive	100%	Non-toxic	100%	85%	50%	70%	30%	85%	70%	85%	Activity (Sorghum halepense [29]): 85%
CCOC(=O)C(C)Oc1ccc(Oc2ncc(Cl)cn2)cc1 (racemic)	–	inactive	–	inactive	Non-toxic	–	inactive	Non-toxic	–	inactive	–	Non-toxic	–	–	–	–	–	–	–	–	Activity (Echinochloa crus-galli [30]): 85%; Activity (Setaria viridis [31]): 85%; Activity (Oryza sativa [32]): 70%; Activity (Zea mays [33]): 85%; Activity (Sorghum halepense [34]): 85%; Activity (Triticum aestivum [35]): 70%; Activity (Avena fatua [36]): 85%
COC(=O)C(C)Oc1ccc(N(C)c2ncc(Cl)cn2)cc1 (racemic)	–	inactive	–	inactive	Non-toxic	–	inactive	Non-toxic	–	inactive	–	Non-toxic	–	–	–	–	–	–	–	–	Activity (Echinochloa crus-galli [30]): 100%; Activity (Setaria viridis [31]): 85%; Activity (Oryza sativa [32]): 70%; Activity (Zea mays [33]): 85%; Activity (Sorghum halepense [34]): 85%; Activity (Triticum aestivum [35]): 85%; Activity (Avena fatua [36]): 85%
CCOC(=O)C(C)Oc1ccc(N(C)c2nc3ccccc3o2)cc1 (racemic)	–	inactive	–	inactive	Non-toxic	–	inactive	Non-toxic	–	inactive	–	Non-toxic	–	–	–	–	–	–	–	–	Activity (Zea mays [37]): 100%; Activity (Setaria viridis [38]): 85%; Activity (Triticum aestivum [39]): 85%; Activity (Sorghum halepense [40]): 100%; Activity (Avena fatua [41]): 70%; Activity (Echinochloa crus-galli [42]): 100%; Activity (Oryza sativa [43]): 30%
COC(=O)C(C)Oc1ccc(N(C)c2nnc3cc(Cl)ccc3n2)cc1 (racemic)	85%	inactive	85%	inactive	Non-toxic	100%	inactive	Non-toxic	100%	inactive	100%	Non-toxic	85%	85%	0%	0%	50%	70%	100%	70%	Activity (Sorghum halepense [29]): 50%
